This passage reports inhibition results from paper PMC6934184, “Selective DNA-PKcs inhibition extends the therapeutic index of localized radiotherapy and chemotherapy” (The Journal of Clinical Investigation, 2019).

The target in the assay is T1, IKBKE (IKK epsilon) (Homo sapiens, UniProt Q14164).
T1 construct: purchased Thermo Fisher Scientific (Life Technologies) SelectScreen
Kind of assay: SelectScreen Z'LYTE. Type of assay: biochemical. Put shortly:
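NU5455 was profiled across the SelectScreen Broad panel of kinase activity and binding assays. Z'LYTE reactions such as CSF1R ran at apparent Km ATP, while the Adapta CAMK1 assay used ATP listed as 10. Values are given as percent.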

T1 sequence (Q14164 whole entry): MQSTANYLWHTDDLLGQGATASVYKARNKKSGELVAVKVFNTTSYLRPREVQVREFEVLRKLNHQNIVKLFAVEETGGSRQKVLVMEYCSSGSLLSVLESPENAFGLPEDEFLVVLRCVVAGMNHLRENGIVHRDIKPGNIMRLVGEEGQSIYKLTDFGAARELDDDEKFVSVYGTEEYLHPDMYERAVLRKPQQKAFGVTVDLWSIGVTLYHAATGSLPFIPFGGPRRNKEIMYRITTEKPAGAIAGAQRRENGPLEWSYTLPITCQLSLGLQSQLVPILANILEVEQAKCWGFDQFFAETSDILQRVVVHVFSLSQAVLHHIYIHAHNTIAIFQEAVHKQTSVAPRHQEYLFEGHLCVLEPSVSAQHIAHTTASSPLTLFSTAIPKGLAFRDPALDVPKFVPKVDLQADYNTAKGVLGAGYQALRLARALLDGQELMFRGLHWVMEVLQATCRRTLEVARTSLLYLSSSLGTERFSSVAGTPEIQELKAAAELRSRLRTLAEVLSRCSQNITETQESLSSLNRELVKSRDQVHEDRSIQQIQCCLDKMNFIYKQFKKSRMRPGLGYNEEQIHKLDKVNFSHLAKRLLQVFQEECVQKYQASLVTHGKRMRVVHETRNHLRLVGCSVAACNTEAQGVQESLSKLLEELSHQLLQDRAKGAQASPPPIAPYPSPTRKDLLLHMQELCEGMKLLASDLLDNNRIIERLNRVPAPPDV

For orientation: inhibition means the change of the read-out against control, counted positive when it falls. On to `CN(C(=O)CN1CCOCC1)c1ccc2sc3c(-c4cccc5c(=O)cc(N6CC7CCC(C6)O7)oc45)cccc3c2c1` [NU5455], for which the inhibition at 1 µM is -0.7%.
